Assay results reported in patent US8802597B2, “Herbicidal pyrimidines” (E I du Pont de Nemours and Company, priority 2003, dated 2014).

Key:
Assay in all cases: Test C pre/postemergence
Type in all cases: in vivo
[1] = test system: morningglory (Ipomoea coccinea); conditions: Postemergence; for Morningglory plant response rating: scale 0 to 100 (0 no effect, 100 complete control); for Plant response rating, Morningglory: scale 0 to 100
Summary of the method: (§1)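 Greenhouse herbicide screen, visual readout. Compound in solvent/surfactant applied preemergence at planting or postemergence to 1- to 4-leaf plants; assessed at 12–14 days on a 0–100 control scale.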

[2] = test system: woolly cupgrass (Eriochloa villosa); conditions: Postemergence; for Cupgrass, Woolly plant response rating: scale 0 to 100 (0 no effect, 100 complete control); for Plant response rating, Cupgrass, Woolly: scale 0 to 100
Summary of the method: as §1

[3] = test system: common ragweed (Ambrosia elatior); conditions: Postemergence; for Ragweed plant response rating: scale 0 to 100 (0 no effect, 100 complete control); for Plant response rating, Ragweed: scale 0 to 100
Summary of the method: as §1

[4] = test system: cocklebur (Xanthium strumarium); conditions: Postemergence; for Cocklebur plant response rating: scale 0 to 100 (0 no effect, 100 complete control); for Plant response rating, Cocklebur: scale 0 to 100
Summary of the method: as §1

[5] = test system: Surinam grass (Brachiaria decumbens); conditions: Postemergence; for Surinam Grass plant response rating: scale 0 to 100 (0 no effect, 100 complete control); for Plant response rating, Surinam Grass: scale 0 to 100
Summary of the method: as §1

[6] = test system: bermudagrass (Cynodon dactylon); conditions: Postemergence; for Bermudagrass plant response rating: scale 0 to 100 (0 no effect, 100 complete control); for Plant response rating, Bermudagrass: scale 0 to 100
Summary of the method: as §1

[7] = test system: johnsongrass (Sorghum halepense); conditions: Postemergence; for Johnsongrass plant response rating: scale 0 to 100 (0 no effect, 100 complete control)
Summary of the method: as §1

[8] = test system: pigweed (Amaranthus retroflexus); conditions: Postemergence; for Pigweed plant response rating: scale 0 to 100 (0 no effect, 100 complete control); for Plant response rating, Pigweed: scale 0 to 100
Summary of the method: as §1

kochia (Kochia scoparia) = conditions: Postemergence; for Kochia plant response rating: scale 0 to 100 (0 no effect, 100 complete control); for Plant response rating, Kochia: scale 0 to 100
Summary of the method: as §1

corn (Zea mays) = conditions: Postemergence; for Corn plant response rating: scale 0 to 100 (0 no effect, 100 complete control); for Plant response rating, Corn: scale 0 to 100
Summary of the method: as §1

Compound: Nc1nc(-c2ccc(Br)cc2)nc(C(=O)O)c1Br [Compound 136]
- Plant response rating (scale of 0 to 100), Morningglory ([1]; 16 g ai/ha): 65
- Plant response rating (scale of 0 to 100), Morningglory ([1]; 31 g ai/ha): 85
- Plant response rating (scale of 0 to 100), Morningglory ([1]; 62 g ai/ha): 90
- Morningglory plant response rating ([1]; 125 g ai/ha): 100
- Plant response rating (scale of 0 to 100), Cupgrass, Woolly ([2]; 16 g ai/ha): 55
- Plant response rating (scale of 0 to 100), Cupgrass, Woolly ([2]; 31 g ai/ha): 65
- Plant response rating (scale of 0 to 100), Cupgrass, Woolly ([2]; 62 g ai/ha): 70
- Cupgrass, Woolly plant response rating ([2]; 125 g ai/ha): 70
- Plant response rating (scale of 0 to 100), Ragweed ([3]; 16 g ai/ha): 75
- Plant response rating (scale of 0 to 100), Ragweed ([3]; 31 g ai/ha): 85
- Plant response rating (scale of 0 to 100), Ragweed ([3]; 62 g ai/ha): 90
- Ragweed plant response rating ([3]; 125 g ai/ha): 95
- Plant response rating (scale of 0 to 100), Cocklebur ([4]; 16 g ai/ha): 95
- Plant response rating (scale of 0 to 100), Cocklebur ([4]; 31 g ai/ha): 100
- Plant response rating (scale of 0 to 100), Cocklebur ([4]; 62 g ai/ha): 100
- Cocklebur plant response rating ([4]; 125 g ai/ha): 100
- Plant response rating (scale of 0 to 100), Surinam Grass ([5]; 16 g ai/ha): 55
- Plant response rating (scale of 0 to 100), Surinam Grass ([5]; 31 g ai/ha): 65
- Plant response rating (scale of 0 to 100), Surinam Grass ([5]; 62 g ai/ha): 65
- Surinam Grass plant response rating ([5]; 125 g ai/ha): 70
- Plant response rating (scale of 0 to 100), Bermudagrass ([6]; 16 g ai/ha): 75
- Plant response rating (scale of 0 to 100), Bermudagrass ([6]; 31 g ai/ha): 80
- Bermudagrass plant response rating ([6]; 62 g ai/ha): 80
- Bermudagrass plant response rating ([6]; 125 g ai/ha): 85
- Plant response rating (scale of 0 to 100), Johnsongrass ([7]; 16 g ai/ha): 60
- Plant response rating (scale of 0 to 100), Johnsongrass ([7]; 31 g ai/ha): 85
- Plant response rating (scale of 0 to 100), Johnsongrass ([7]; 62 g ai/ha): 85
- Johnsongrass plant response rating ([7]; 125 g ai/ha): 95
- Plant response rating (scale of 0 to 100), Pigweed ([8]; 16 g ai/ha): 90
- Plant response rating (scale of 0 to 100), Pigweed ([8]; 31 g ai/ha): 100
- Plant response rating (scale of 0 to 100), Pigweed ([8]; 62 g ai/ha): 100
- Pigweed plant response rating ([8]; 125 g ai/ha): 100
- Plant response rating (scale of 0 to 100), Kochia (kochia (Kochia scoparia); 16 g ai/ha): 75
- Plant response rating (scale of 0 to 100), Kochia (kochia (Kochia scoparia); 31 g ai/ha): 80
- Plant response rating (scale of 0 to 100), Kochia (kochia (Kochia scoparia); 62 g ai/ha): 90
- Kochia plant response rating (kochia (Kochia scoparia); 125 g ai/ha): 90
- Plant response rating (scale of 0 to 100), Corn (corn (Zea mays); 16 g ai/ha): 35
- Plant response rating (scale of 0 to 100), Corn (corn (Zea mays); 31 g ai/ha): 35
- Plant response rating (scale of 0 to 100), Corn (corn (Zea mays); 62 g ai/ha): 65
- Corn plant response rating (corn (Zea mays); 125 g ai/ha): 75

Compound: COC(=O)c1nc(-c2ccc(Cl)cc2)nc(N)c1Br [Compound 83]
- Plant response rating (scale of 0 to 100), Morningglory ([1]; 16 g ai/ha): 70
- Plant response rating (scale of 0 to 100), Morningglory ([1]; 31 g ai/ha): 85
- Plant response rating (scale of 0 to 100), Morningglory ([1]; 62 g ai/ha): 90
- Morningglory plant response rating ([1]; 125 g ai/ha): 90
- Plant response rating (scale of 0 to 100), Cupgrass, Woolly ([2]; 16 g ai/ha): 15
- Plant response rating (scale of 0 to 100), Cupgrass, Woolly ([2]; 31 g ai/ha): 15
- Plant response rating (scale of 0 to 100), Cupgrass, Woolly ([2]; 62 g ai/ha): 45
- Cupgrass, Woolly plant response rating ([2]; 125 g ai/ha): 60
- Plant response rating (scale of 0 to 100), Ragweed ([3]; 16 g ai/ha): 65
- Plant response rating (scale of 0 to 100), Ragweed ([3]; 31 g ai/ha): 70
- Plant response rating (scale of 0 to 100), Ragweed ([3]; 62 g ai/ha): 75
- Ragweed plant response rating ([3]; 125 g ai/ha): 95
- Plant response rating (scale of 0 to 100), Cocklebur ([4]; 16 g ai/ha): 60
- Plant response rating (scale of 0 to 100), Cocklebur ([4]; 31 g ai/ha): 70
- Plant response rating (scale of 0 to 100), Cocklebur ([4]; 62 g ai/ha): 70
- Cocklebur plant response rating ([4]; 125 g ai/ha): 100
- Plant response rating (scale of 0 to 100), Surinam Grass ([5]; 16 g ai/ha): 20
- Plant response rating (scale of 0 to 100), Surinam Grass ([5]; 31 g ai/ha): 30
- Plant response rating (scale of 0 to 100), Surinam Grass ([5]; 62 g ai/ha): 45
- Surinam Grass plant response rating ([5]; 125 g ai/ha): 65
- Plant response rating (scale of 0 to 100), Bermudagrass ([6]; 16 g ai/ha): 0
- Plant response rating (scale of 0 to 100), Bermudagrass ([6]; 31 g ai/ha): 5
- Bermudagrass plant response rating ([6]; 62 g ai/ha): 20
- Bermudagrass plant response rating ([6]; 125 g ai/ha): 55
- Plant response rating (scale of 0 to 100), Johnsongrass ([7]; 16 g ai/ha): 10
- Plant response rating (scale of 0 to 100), Johnsongrass ([7]; 31 g ai/ha): 55
- Plant response rating (scale of 0 to 100), Johnsongrass ([7]; 62 g ai/ha): 55
- Johnsongrass plant response rating ([7]; 125 g ai/ha): 70
- Plant response rating (scale of 0 to 100), Pigweed ([8]; 16 g ai/ha): 95
- Plant response rating (scale of 0 to 100), Pigweed ([8]; 31 g ai/ha): 95
- Plant response rating (scale of 0 to 100), Pigweed ([8]; 62 g ai/ha): 100
- Pigweed plant response rating ([8]; 125 g ai/ha): 100
- Plant response rating (scale of 0 to 100), Kochia (kochia (Kochia scoparia); 16 g ai/ha): 65
- Plant response rating (scale of 0 to 100), Kochia (kochia (Kochia scoparia); 31 g ai/ha): 75
- Plant response rating (scale of 0 to 100), Kochia (kochia (Kochia scoparia); 62 g ai/ha): 75
- Kochia plant response rating (kochia (Kochia scoparia); 125 g ai/ha): 90
- Plant response rating (scale of 0 to 100), Corn (corn (Zea mays); 16 g ai/ha): 5
- Plant response rating (scale of 0 to 100), Corn (corn (Zea mays); 31 g ai/ha): 15
- Plant response rating (scale of 0 to 100), Corn (corn (Zea mays); 62 g ai/ha): 50
- Corn plant response rating (corn (Zea mays); 125 g ai/ha): 60

Compound: CCOC(=O)c1nc(-c2ccc(Cl)cc2)nc(N)c1Br [Compound 37]
- Morningglory plant response rating ([1]; 62 g ai/ha): 0
- Morningglory plant response rating ([1]; 125 g ai/ha): 65
- Plant response rating, Morningglory ([1]; 250 g ai/ha): 80
- Plant response rating, Morningglory ([1]; 500 g ai/ha): 95
- Cupgrass, Woolly plant response rating ([2]; 62 g ai/ha): 0
- Cupgrass, Woolly plant response rating ([2]; 125 g ai/ha): 0
- Plant response rating, Cupgrass, Woolly ([2]; 250 g ai/ha): 0
- Plant response rating, Cupgrass, Woolly ([2]; 500 g ai/ha): 45
- Ragweed plant response rating ([3]; 62 g ai/ha): 0
- Ragweed plant response rating ([3]; 125 g ai/ha): 80
- Plant response rating, Ragweed ([3]; 250 g ai/ha): 90
- Plant response rating, Ragweed ([3]; 500 g ai/ha): 95
- Cocklebur plant response rating ([4]; 62 g ai/ha): 0
- Cocklebur plant response rating ([4]; 125 g ai/ha): 95
- Plant response rating, Cocklebur ([4]; 250 g ai/ha): 95
- Plant response rating, Cocklebur ([4]; 500 g ai/ha): 95
- Surinam Grass plant response rating ([5]; 62 g ai/ha): 0
- Surinam Grass plant response rating ([5]; 125 g ai/ha): 0
- Plant response rating, Surinam Grass ([5]; 250 g ai/ha): 0
- Plant response rating, Surinam Grass ([5]; 500 g ai/ha): 0
- Bermudagrass plant response rating ([6]; 62 g ai/ha): 0
- Bermudagrass plant response rating ([6]; 125 g ai/ha): 0
- Plant response rating, Bermudagrass ([6]; 250 g ai/ha): 0
- Plant response rating, Bermudagrass ([6]; 500 g ai/ha): 20
- Johnsongrass plant response rating ([7]; 62 g ai/ha): 0
- Johnsongrass plant response rating ([7]; 125 g ai/ha): 20
- Plant response rating, Johnsongrass ([7]; 500 g ai/ha, scale 0 to 100): 55
- Pigweed plant response rating ([8]; 62 g ai/ha): 0
- Pigweed plant response rating ([8]; 125 g ai/ha): 95
- Plant response rating, Pigweed ([8]; 250 g ai/ha): 100
- Plant response rating, Pigweed ([8]; 500 g ai/ha): 100
- Kochia plant response rating (kochia (Kochia scoparia); 62 g ai/ha): 0
- Kochia plant response rating (kochia (Kochia scoparia); 125 g ai/ha): 90
- Plant response rating, Kochia (kochia (Kochia scoparia); 250 g ai/ha): 95
- Plant response rating, Kochia (kochia (Kochia scoparia); 500 g ai/ha): 95
- Corn plant response rating (corn (Zea mays); 62 g ai/ha): 0
- Corn plant response rating (corn (Zea mays); 125 g ai/ha): 10
- Plant response rating, Corn (corn (Zea mays); 250 g ai/ha): 15
- Plant response rating, Corn (corn (Zea mays); 500 g ai/ha): 25
